Experimental data from US20070248997A1, “METHOD OF USING ONE-D[…] MULTI-D[…] MAGNETIC RESONANCE TO IDENTIFY COMPOUNDS THAT INTERACT WITH TARGET BIOMOLECULES” (Smithkline Beecham Corporation, priority 1999, published 2007).

Biological target: Ni^2+ form of Peptide Deformylase (S. Aureus) (Staphylococcus aureus, UniProt P68826)
Experiment: Deformylation of For-Met-Ala-Ser-OH by Ni-PDF monitored by 1H NMR over incubation times
Format: biochemical
Conditions: for interaction constant α between I1 and I2: 0.4 mM 8-hydroxyquinoline (I1) + 0.15 mM N-Nitro-N′-(N-phenylamino)guanidine (I2); for interaction constant α between I1 and I2 / Ki: 2.5 mM substrate, 1 uM enzyme, assuming a KM of 2.5 mM, FIG. 4; for Ki: from slopes of formate buildup, read-out: KEI (constant of inhibition)
Procedure: FIG. 1 depicts the deformylation of For-Met-Ala-Ser-OH catalyzed by the Ni^2+ form of Peptide Deformylase (S. Aureus) (herein also referred to as “PDF”) over a range of incubation times, as monitored by 1H nuclear magnetic resonance spectroscopy.
FIG. 4 depicts the deformylation of For-Met-Ala-Ser-OH catalyzed by the Ni^2+ form of Peptide Deformylase (S.Aureus) over a range of incubation times, as monitored by 1H nuclear magnetic resonance spectroscopy of the buildup of the formate (For) moiety. Four slopes are illustrated in this figure, the first one (∘) is a “control” experiment using 2.5 mM of substrate (For-Met-Ala-Ser-OH) and 1 uM of enzyme. […] The third slope (∇) contains 0.15 mM of N-Nitro-N′-(N-phenylamino)guanidine (I2) in the presence of 2.5 mM of substrate and 1 uM of enzyme. Finally the fourth slope (⋄) contains both I1 and I2 at 0.4 mM and 0.15 mM, respectively, in the presence of 2.5 mM of substrate and 1 uM of enzyme. Calculating the four slopes and using the steady-state rate equations for this system, it is straightforward to calculate the KEI1, KEI2, and α value.

Chain of Ni^2+ form of Peptide Deformylase (S. Aureus) (P68826 whole entry): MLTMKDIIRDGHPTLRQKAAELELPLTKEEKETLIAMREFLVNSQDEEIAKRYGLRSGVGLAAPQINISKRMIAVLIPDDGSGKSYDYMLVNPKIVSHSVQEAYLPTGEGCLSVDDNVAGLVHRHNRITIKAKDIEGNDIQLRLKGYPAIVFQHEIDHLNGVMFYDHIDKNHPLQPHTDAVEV

Row | Compound | interaction constant α between I1 and I2 | Ki [µM] | deformylation of For-Met-Ala-Ser-OH (rate at which product resonance peak increases) (8-hydroxyquinoline added to substrate + Ni-PDF mixture, FIG. 1)
1 | N=C(NNc1ccccc1)N[N+](=O)[O-] [N-Nitro-N′-(N-phenylamino)guanidine] | 0.72 | 151 | –
2 | Oc1cccc2cccnc12 [8-hydroxyquinoline] | 0.72 | 335 | slightly inhibited
